Measured values as given in patent US20130123481A1, “MODIFIED NUCLEOSIDES, NUCLEOTIDES, AND NUCLEIC ACIDS, AND USES THEREOF” (MODERNA THERAPEUTICS, priority 2011, published 2013).

What was measured:
[1] = test system: peripheral blood mononuclear cells (PBMC), interferon-alpha (IFN-α); format: cell-based, human; settings: for IFN-α Expression (pg/ml) Donor 1 / IFN-α Expression (pg/ml) Donor 2 / IFN-α Expression (pg/ml) Donor 3: 500 ng fully modified G-CSF mRNA; for IFN-α Expression (pg/ml) Donor 1: Lipofectamine 2000, PBMC Donor 1, supernatant ELISA; for IFN-α Expression (pg/ml) Donor 2: Lipofectamine 2000, PBMC Donor 2, supernatant ELISA; for IFN-α Expression (pg/ml) Donor 3: Lipofectamine 2000, PBMC Donor 3, supernatant ELISA
Excerpt: (§1) The supernatant was harvested and stored frozen until analyzed by ELISA to determine the G-CSF protein expression, and the induction of the cytokines interferon-alpha (IFN-α) and tumor necrosis factor alpha (TNF-α).

wild-type T7 polymerase = wild-type T7 polymerase (Escherichia phage T7, UniProt P00573); assay: In Vitro Transcription with Wild-Type T7 Polymerase (transcription and capping yield); settings: OD260; for In vitro transcription Yield: wild-type T7 polymerase; for Capping reaction Yield: enzymatic capping
wild-type T7 polymerase, sequence (P00573 whole entry): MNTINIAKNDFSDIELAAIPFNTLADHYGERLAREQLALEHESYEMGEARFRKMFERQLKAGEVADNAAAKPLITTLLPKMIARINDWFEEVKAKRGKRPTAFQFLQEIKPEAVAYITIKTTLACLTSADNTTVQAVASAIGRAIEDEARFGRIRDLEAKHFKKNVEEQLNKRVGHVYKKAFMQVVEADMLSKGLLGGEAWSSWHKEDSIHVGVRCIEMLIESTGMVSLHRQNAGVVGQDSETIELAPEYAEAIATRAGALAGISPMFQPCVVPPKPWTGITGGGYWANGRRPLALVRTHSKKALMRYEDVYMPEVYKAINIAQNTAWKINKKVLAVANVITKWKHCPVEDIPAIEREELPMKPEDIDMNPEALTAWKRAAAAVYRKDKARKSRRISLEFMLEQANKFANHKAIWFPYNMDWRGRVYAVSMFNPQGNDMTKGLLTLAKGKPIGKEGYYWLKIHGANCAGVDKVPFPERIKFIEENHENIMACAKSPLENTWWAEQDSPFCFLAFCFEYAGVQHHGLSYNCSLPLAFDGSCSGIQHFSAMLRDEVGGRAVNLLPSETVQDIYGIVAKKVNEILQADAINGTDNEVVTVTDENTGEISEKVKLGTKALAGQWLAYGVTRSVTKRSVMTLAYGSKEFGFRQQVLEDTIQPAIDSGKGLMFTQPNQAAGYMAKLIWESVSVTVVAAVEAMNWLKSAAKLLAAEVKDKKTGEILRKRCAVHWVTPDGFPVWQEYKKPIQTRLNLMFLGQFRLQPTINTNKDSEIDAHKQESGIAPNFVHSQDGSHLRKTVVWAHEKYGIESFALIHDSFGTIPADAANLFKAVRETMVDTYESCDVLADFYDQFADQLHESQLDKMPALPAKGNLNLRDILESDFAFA
Procedure: The luciferase and G-CSF modified mRNA were also subjected to an enzymatic capping reaction and each modified mRNA capping reaction was evaluated for yield by spectrophometic measurement (OD260) and correct size assessed using bioanalyzer.

[2] = test system: peripheral blood mononuclear cells (PBMC); assay: In Vitro Screening in PBMC - G-CSF protein expression; format: cell-based, human; settings: 500 ng mRNA
Excerpt: as §1

[3] = test system: peripheral blood mononuclear cells (PBMC), tumor necrosis factor alpha (TNF-α); assay: In Vitro Screening in PBMC - tumor necrosis factor alpha (TNF-α) induction; format: cell-based, human; settings: 500 ng fully modified G-CSF mRNA; for TNF-α Expression (pg/ml) Donor 1: Lipofectamine 2000, PBMC Donor 1, supernatant ELISA; for TNF-α Expression (pg/ml) Donor 2: Lipofectamine 2000, PBMC Donor 2, supernatant ELISA; for TNF-α Expression (pg/ml) Donor 3: Lipofectamine 2000, PBMC Donor 3, supernatant ELISA
Excerpt: as §1

[4] = test system: Salmonella tester strains (TA97a, TA98, TA100 and TA1535) and Escherichia coli strain (WP2 uvrA pKM101); assay: Microames Reverse Mutation Screen; settings: for Cytotoxicity (reduction in the background lawn and/or number of revertants) / increase in the number of revertant colonies as compared with the vehicle control: any strain, with or without metabolic activation; for mutagenic (microAmes screen): up to 250 ug/well, strains TA97a, TA98, TA100, TA1535 and WP2 uvrA pKM101 with or without metabolic activation
Procedure: The microames screen is a version of the full Ames preincubation assay. It detects both frameshift and base-pair substitution mutations using four Salmonella tester strains (TA97a, TA98, TA100 and TA1535) and one Escherichia coli strain (WP2 uvrA pKM101). Strains TA97a and TA98 detect frameshift mutations, and TA100, TA1535 and WP2 uvrA pKM101 detect base-pair substitution mutations. This scaled-down Ames test uses minimal compound, is conducted with and without metabolic activation (S9 fraction), and uses multiwell plates. This teste is a microbial assay to detect the mutagenic potential of test compounds.
Positive control compounds were used at 4 different concentrations to ensure the assay system was sensitive to known mutagenic compounds. DMSO was used as the vehicle control.

Balb-C mice = assay: In Vivo Screening of Luciferase Modified mRNA (bioluminescence, total flux); settings: fully modified luciferase mRNA in 1×PBS, subcutaneous, 42 to 103 ug, imaged 8 hours after dosing, total flux of entire mouse
Procedure: A control of PBS was also tested. The dosages of the modified luciferase mRNA is also outlined in Table 31. 8 hours after dosing the mice were imaged to determine luciferase expression. Twenty minutes prior to imaging, mice were injected intraperitoneally with a D-luciferin solution at 150 mg/kg. Animals were then anesthetized and images were acquired with an IVIS Lumina II imaging system (Perkin Elmer). Bioluminescence was measured as total flux (photons/second) of the entire mouse.

HeLa cells = assay: G-CSF expression in HeLa cells (ELISA); format: cell-based, human; settings: fully modified G-CSF mRNA transfected in HeLa cells, ELISA
Procedure: (§2) To assess the activity of all our different chemical modifications in the context of a second open reading frame, we replicated experiments previously conducted using luciferase mRNA, with human G-CSF mRNA. […] The mutant T7 polymerase was obtained commercially (Durascribe® T7 Transcription kit (Cat. No. DS010925) (Epicentre®, Madison, Wis.).
(§3) The modified RNA in Tables 45 and 46 were transfected in vitro in HeLa cells or added to rabbit reticulysates (250 ng of modified mRNA) as indicated. […] In Table 45, “NT” means not tested.

rabbit reticulysates = assay: G-CSF expression in rabbit reticulysates (ELISA); format: biochemical; settings: 250 ng modified G-CSF mRNA in rabbit reticulysates
Procedure: as §2, §3

[5] = test system: peripheral blood mononuclear cells (PBMC), TNF-alpha; assay: In Vitro PBMC Studies: Percent modification - TNF-alpha expression; format: cell-based, human
Procedure: (§4) The supernatant was harvested and run by ELISA 22 hours after transfection to determine the protein expression.

[6] = test system: peripheral blood mononuclear cells (PBMC), IFN-alpha; assay: In Vitro PBMC Studies: Percent modification - IFN-alpha expression; format: cell-based, human
Procedure: as §4

[7] = test system: peripheral blood mononuclear cells (PBMC); assay: In Vitro PBMC Studies: Percent modification - G-CSF expression; format: cell-based, human; settings: average of PBMC donors D1-D3
Procedure: 480 ng of G-CSF mRNA modified with 5-methylcytosine (5mC) and pseudouridine (pseudoU) or unmodified G-CSF mRNA was transfected with 0.4 uL of Lipofectamine 2000 into peripheral blood mononuclear cells (PBMC) from three normal blood donors (D1, D2, and D3). […] The supernatant was harvested and run by ELISA 22 hours after transfection to determine the protein expression. The expression of IFN-alpha and TNF-alpha may be a secondary effect from the transfection of the G-CSF mRNA.

[8] = G-CSF modified mRNA (wild-type T7)
[9] = Luciferase modified mRNA (wild-type T7)
[10] = PBMC Donor 1, 0.4 uL Lipofectamine 2000

Cc1cn([C@@H]2O[C@H](CO)[C@@H](O)[C@H]2O)c(=O)nc1N [5-Methylcytidine, reference compound]
IFN-α Expression (pg/ml) Donor 1 [1]: 643 pg/mL | IFN-α Expression (pg/ml) Donor 2 [1]: 359 pg/mL | IFN-α Expression (pg/ml) Donor 3 [1]: 529 pg/mL | In vitro transcription Yield (wild-type T7 polymerase; G-CSF mRNA): 2.05 mg | Capping reaction Yield (wild-type T7 polymerase; [8]): 1.08 mg | In vitro transcription Yield (wild-type T7 polymerase; Luciferase mRNA): 1.29 mg | Capping reaction Yield (wild-type T7 polymerase; [9]): 1.02 mg | G-CSF Protein Expression [2, 10]: 291 pg/mL | G-CSF Protein Expression ([2]; PBMC Donor 2): 277 pg/mL | G-CSF Protein Expression ([2]; PBMC Donor 3): 359 pg/mL | TNF-α Expression (pg/ml) Donor 1 [3]: 176 pg/mL | TNF-α Expression (pg/ml) Donor 2 [3]: 136 pg/mL | TNF-α Expression (pg/ml) Donor 3 [3]: 193 pg/mL | Cytotoxicity (reduction in the background lawn and/or number of revertants) [4]: not observed | increase in the number of revertant colonies as compared with the vehicle control [4]: no increase | mutagenic (microAmes screen) [4]: not mutagenic | Luciferase expression (photon/second) (Balb-C mice): 1.94E+07 photon/second

O=c1[nH]c(=O)n([C@@H]2O[C@H](CO)[C@@H](O)[C@H]2O)cc1Br [5-bromouridine]
G-CSF Protein Expression [2, 10]: 314 pg/mL | G-CSF Protein Expression ([2]; PBMC Donor 2): 482 pg/mL | G-CSF Protein Expression ([2]; PBMC Donor 3): 291 pg/mL | Luciferase expression (photon/second) (Balb-C mice): 3.75E+07 photon/second

Cc1cn([C@@H]2O[C@H](CO)[C@@H](O)[C@H]2O)c(=O)[nH]c1=O [5-methyluridine]
G-CSF protein (pg/ml) HeLa cells (HeLa cells): 347,045 pg/ml | G-CSF protein (pg/ml) Rabbit reticulysates cells (rabbit reticulysates): 147,250 pg/ml | G-CSF Protein Expression [2, 10]: 318 pg/mL | G-CSF Protein Expression ([2]; PBMC Donor 2): 359 pg/mL | G-CSF Protein Expression ([2]; PBMC Donor 3): 345 pg/mL | Luciferase expression (photon/second) (Balb-C mice): 7.42E+06 photon/second

Cn1cc([C@@H]2O[C@H](CO)[C@@H](O)[C@H]2O)c(=O)[nH]c1=O [Compound 1-methylpseudouridine, 1-methylpseudouridine]
Luciferase expression (photon/second) (Balb-C mice): 7.40E+07 photon/second

C[C@]1(CO)O[C@@H](n2ccc(N)nc2=O)[C@H](O)[C@@H]1O [Compound 25, 4′-C-methyl cytidine]
Average TNF-a [5]: 44 pg/mL | Average IFN-a [6]: 545 pg/mL | Average G-CSF [7]: 122 pg/mL

CN(C)c1nc2c(ncn2[C@@H]2O[C@H](CO)[C@@H](O)[C@H]2O)c(=O)[nH]1 [Compound 50, N,N-dimethyl guanosine]
Average TNF-a [5]: 28 pg/mL | Average IFN-a [6]: 376 pg/mL | Average G-CSF [7]: 189 pg/mL

Cn1cc([C@@H]2O[C@H](CO)[C@@H](O)[C@H]2O)c(=O)[nH]c1=O [N1-methylpseudouridine]
cytokine induction (in words) [1]: no cytokine induction | IFN-α Expression (pg/ml) Donor 1 [1]: 26 pg/mL | IFN-α Expression (pg/ml) Donor 2 [1]: 75 pg/mL | IFN-α Expression (pg/ml) Donor 3 [1]: 138 pg/mL | In vitro transcription Yield (wild-type T7 polymerase; G-CSF mRNA): 3.24 mg | Capping reaction Yield (wild-type T7 polymerase; [8]): 2.58 mg | In vitro transcription Yield (wild-type T7 polymerase; Luciferase mRNA): 1.43 mg | Capping reaction Yield (wild-type T7 polymerase; [9]): 1.27 mg | G-CSF protein (pg/ml) Rabbit reticulysates cells (rabbit reticulysates): 230,000 pg/ml | G-CSF Protein Expression [2, 10]: 21,495 pg/ml | G-CSF Protein Expression ([2]; PBMC Donor 2): 16,550 pg/ml | G-CSF Protein Expression ([2]; PBMC Donor 3): 12,441 pg/ml | TNF-α Expression (pg/ml) Donor 1 [3]: 101 pg/mL | TNF-α Expression (pg/ml) Donor 2 [3]: 106 pg/mL | TNF-α Expression (pg/ml) Donor 3 [3]: 134 pg/mL | Cytotoxicity (reduction in the background lawn and/or number of revertants) [4]: not observed | increase in the number of revertant colonies as compared with the vehicle control [4]: no increase | mutagenic (microAmes screen) [4]: not mutagenic

CC(=O)Nc1ccn([C@@H]2O[C@H](CO)[C@@H](O)[C@H]2O)c(=O)n1 [N4-acetylcytidine]
G-CSF protein (pg/ml) HeLa cells (HeLa cells): 39,545 pg/ml | G-CSF protein (pg/ml) Rabbit reticulysates cells (rabbit reticulysates): 8,000 pg/ml | G-CSF Protein Expression [2, 10]: 50 pg/mL | G-CSF Protein Expression ([2]; PBMC Donor 2): 136 pg/mL | G-CSF Protein Expression ([2]; PBMC Donor 3): 36 pg/mL | Luciferase expression (photon/second) (Balb-C mice): 1.11E07 photon/second

O=c1[nH]cc([C@@H]2O[C@H](CO)[C@@H](O)[C@H]2O)c(=O)[nH]1 [pseudouridine, Pseudouridine]
G-CSF protein (pg/ml) HeLa cells (HeLa cells): 1,150,909 pg/ml | G-CSF protein (pg/ml) Rabbit reticulysates cells (rabbit reticulysates): 147,875 pg/ml | G-CSF Protein Expression [2, 10]: 2477 pg/mL | G-CSF Protein Expression ([2]; PBMC Donor 2): 1,909 pg/ml | G-CSF Protein Expression ([2]; PBMC Donor 3): 1,498 pg/ml | Luciferase expression (photon/second) (Balb-C mice): 1.36E+07 photon/second
